Data on 26 molecules can be found in ChEMBL document CHEMBL4346659, “Design, synthesis and evaluation of novel 7H-pyrrolo[2,3-d]pyrimidin-4-amine derivatives as potent, selective and reversible Bruton's tyrosine kinase (BTK) inhibitors for the treatment of rheumatoid arthritis” (Eur J Med Chem, 2019).

Structures are written as SMILES.

One experiment has as its system JeKo-1. Kind of experiment: Antiproliferative activity against human JeKo1 cells. It is filed as functional, cell-based. The settings on record: Homo sapiens, JeKo-1.
Experiment [1] concerns the target T1, Tyrosine-protein kinase BTK (Homo sapiens, UniProt Q06187). Kind of experiment: Inhibition of BTK (unknown origin) at 0.1 uM in the presence of ATP by caliper mobility shift assay relative to control.
The test system of the next experiment is Daudi. Kind of experiment: Antiproliferative activity against human Daudi cells. It is filed as functional, cell-based. The settings on record: Homo sapiens, Daudi.
Experiment [2] concerns the target T1, Tyrosine-protein kinase BTK. Kind of experiment: Inhibition of BTK (unknown origin) at 1 uM in the presence of ATP by caliper mobility shift assay relative to control.
A further experiment has as its system Ramos. Kind of experiment: Antiproliferative activity against human Ramos cells. The class given is functional, cell-based. As to conditions: Homo sapiens, Ramos.

T1 sequence (Q06187 whole entry): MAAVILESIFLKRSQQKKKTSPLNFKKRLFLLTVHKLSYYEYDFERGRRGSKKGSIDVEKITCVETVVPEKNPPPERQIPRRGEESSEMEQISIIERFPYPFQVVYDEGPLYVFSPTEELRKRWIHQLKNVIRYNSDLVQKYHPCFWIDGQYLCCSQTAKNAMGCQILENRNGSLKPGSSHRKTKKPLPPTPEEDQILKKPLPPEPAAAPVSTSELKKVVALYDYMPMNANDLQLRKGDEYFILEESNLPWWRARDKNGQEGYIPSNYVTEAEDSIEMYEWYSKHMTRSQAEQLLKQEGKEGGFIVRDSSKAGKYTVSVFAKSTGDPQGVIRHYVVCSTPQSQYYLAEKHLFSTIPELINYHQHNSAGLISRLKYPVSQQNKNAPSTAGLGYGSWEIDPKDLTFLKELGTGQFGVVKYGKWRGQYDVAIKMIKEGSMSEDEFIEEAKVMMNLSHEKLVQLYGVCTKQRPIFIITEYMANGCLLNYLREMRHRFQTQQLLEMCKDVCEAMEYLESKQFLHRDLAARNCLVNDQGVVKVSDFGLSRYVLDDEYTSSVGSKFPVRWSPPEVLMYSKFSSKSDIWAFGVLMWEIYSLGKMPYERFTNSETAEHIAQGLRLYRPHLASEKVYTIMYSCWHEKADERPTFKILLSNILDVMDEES

In the case of `CCOC(=O)C(C)N1CC[C@H](n2cc(-c3ccc4c(c3)OCO4)c3c(N)ncnc32)C1` (some centres not stated), the IC50 with JeKo-1 came out at 1.21 µM; with Daudi, 25.5 µM; in the experiment with Ramos, 9.92 µM. In addition, the inhibition in experiment [1] was 5.71%; in experiment [2], 44.1%.
For `CN(C)CC(=O)N1CC[C@H](n2cc(-c3ccc4c(c3)OCO4)c3c(N)ncnc32)C1`, in that order: 28.4 µM, 23.1 µM, 21 µM, -0.41% and 23.7%.
With `Nc1ncnc2c1c(-c1ccc3c(c1)OCO3)cn2[C@H]1CCN(C(=O)c2ccccn2)C1`, the IC50 amounted to 19.5 µM with JeKo-1, 12.3 µM in the experiment with Daudi and 20.7 µM with Ramos. The inhibition in experiment [1] turned out to be 1.45%; in experiment [2], 28.1%.
Consider `Nc1ncnc2c1c(-c1ccc(NC(=O)c3ccccc3)cc1)cn2[C@H]1CCN(C[C@@H]2CO2)C1`, for which the IC50 in the experiment with JeKo-1 is 5.39 µM; with Daudi, 3.18 µM; with Ramos, 2.25 µM. Besides, the inhibition in experiment [1] came out at 2.53%; in experiment [2] it was 22.9%.
In the same order, the values of `CC(C)(C)c1ccc(Oc2ccc(-c3cn([C@H]4CCN(C[C@@H]5CO5)C4)c4ncnc(N)c34)cc2)cc1` are 14.8 µM, 6.49 µM, 11.2 µM, 5.96% and 19.1%.
Turning to `N#CCCN1CC[C@H](n2cc(-c3ccc4c(c3)OCO4)c3c(N)ncnc32)C1`, the IC50 in the experiment on JeKo-1 is 1.84 µM; in the experiment with Daudi it was 10.2 µM; in the experiment on Ramos, 13.2 µM. Besides, the inhibition in experiment [1] worked out at 21.6%; in experiment [2], 67.8%.
On to `CN(C)C(=O)N1CC[C@H](n2cc(-c3ccc4c(c3)OCO4)c3c(N)ncnc32)C1`, for which the IC50 was found to be 24.2 µM in the experiment on JeKo-1, 14.6 µM in the experiment on Daudi and 27.7 µM in the experiment on Ramos. Further, the inhibition in experiment [1] came to 1.87%; in experiment [2] it was 42.6%.
For the molecule `Nc1ncnc2c1c(-c1ccc(Oc3ccccc3)cc1)cn2C[C@H]1CCCN1C[C@@H](O)CO`, the figures for the IC50 in the experiment with JeKo-1, in the experiment on Daudi and with Ramos were 9.54 µM, 14.4 µM and 13.5 µM, respectively. The values for the inhibition in experiment [1] and in experiment [2] were 23.9% and 62.5%, respectively.
Turning to `Nc1ncnc2c1c(-c1ccc3c(c1)OCO3)cn2C1CCN(C2COC2)CC1`, the IC50 with JeKo-1 was 16.9 µM; in the experiment with Daudi, 24.1 µM; in the experiment on Ramos, 38 µM. Moreover, the values for the inhibition in experiment [1] and in experiment [2] were 9.5% and 45.7%, respectively.
For `Nc1ncnc2c1c(-c1ccc3c(c1)OCO3)cn2[C@H]1CCN(C(=O)c2ccccc2)C1`, in that order: 17 µM, 8.26 µM, 35.2 µM, 37.1% and 29.4%.
As for `Nc1ncnc2c1c(-c1ccc3c(c1)OCO3)cn2[C@H]1CCN(CC2CCCO2)C1` (some centres not stated), the IC50 was 3.88 µM with JeKo-1, 25.9 µM in the experiment with Daudi and 27.1 µM in the experiment with Ramos. The inhibition in experiment [1] was found to be 3.01%; in experiment [2], 18.9%.
In the same order, the values of `Nc1ncnc2c1c(-c1ccc3c(c1)OCO3)cn2C[C@H]1CCCN(C[C@@H]2CO2)C1` are 7.96 µM, 10.6 µM, 15.1 µM, 34.7% and 70.3%.
As to `COCCN1CC[C@H](n2cc(-c3ccc4c(c3)OCO4)c3c(N)ncnc32)C1`, the values for the IC50 in the experiment on JeKo-1, in the experiment with Daudi and with Ramos were 6.74 µM, 4.3 µM and 21.2 µM, respectively. The figures for the inhibition in experiment [1] and in experiment [2] were 14.3% and 8.09%, respectively.
With `Nc1ncnc2c1c(-c1ccc(Oc3ccccc3)cc1)cn2C[C@H]1CCCN1C(CO)CO`, the figures for the IC50 in the experiment on JeKo-1, in the experiment with Daudi and with Ramos were 14.5 µM, 28.2 µM and 15.3 µM, respectively. For the same molecule, the inhibition is 18.3% in experiment [1] and 54.7% in experiment [2].
Turning to `Nc1ncnc2c1c(-c1cc3ccccc3o1)cn2[C@H]1CCN(C[C@@H]2CO2)C1`, the IC50 in the experiment with JeKo-1 was 2.82 µM; in the experiment with Daudi, 4.51 µM; in the experiment on Ramos it was 6.74 µM. Moreover, the inhibition in experiment [1] was determined as 20.2%; in experiment [2] it was 59.1%.
In the case of `Nc1ncnc2c1c(-c1ccc(C(=O)Nc3ccc(Oc4ccccc4)cc3)cc1)cn2[C@H]1CCN(C[C@@H]2CO2)C1`, the IC50 turned out to be 2.07 µM with JeKo-1, 4.39 µM with Daudi and 3.63 µM with Ramos. In addition, the inhibition in experiment [1] was determined as 7.58%; in experiment [2], 36.9%.
As for `Nc1ncnc2c1c(-c1ccc3c(c1)OCO3)cn2[C@H]1CCN(CCCO)C1`, the values for the IC50 in the experiment with JeKo-1, in the experiment with Daudi and in the experiment on Ramos were 3.13 µM, 29.6 µM and 20.9 µM, respectively. The results for the inhibition in experiment [1] and in experiment [2] were 8.43% and 22.4%, respectively.
Turning to `Nc1ncnc2c1c(-c1ccc3c(c1)OCO3)cn2[C@H]1CCN(S(=O)(=O)C2CC2)C1`, the IC50 in the experiment on JeKo-1 was 11.8 µM; with Daudi it was 16.6 µM; in the experiment with Ramos, 7.79 µM. The inhibition stood at 1.64% in experiment [1] and 37.2% in experiment [2].
As for `Nc1ncnc2c1c(-c1ccc3c(c1)OCO3)cn2C[C@@H]1CCCN(C[C@@H]2CO2)C1`, the IC50 with JeKo-1 turned out to be 8.85 µM; with Daudi, 10.5 µM; in the experiment with Ramos it was 13.1 µM. For the same molecule, the values for the inhibition in experiment [1] and in experiment [2] were 16.2% and 49.2%, respectively.
`Nc1ncnc2c1c(-c1cccc(-n3ncc4ccccc4c3=O)c1)cn2[C@H]1CCN(C[C@@H]2CO2)C1`: the IC50 was found to be 15.2 µM in the experiment on JeKo-1, 14.6 µM with Daudi and 15.2 µM in the experiment with Ramos. For the same molecule, the inhibition in experiment [1] was determined as 3.41%; in experiment [2], 17.5%.
`COC(CN1CC[C@H](n2cc(-c3ccc4c(c3)OCO4)c3c(N)ncnc32)C1)OC`: the results for the IC50 in the experiment with JeKo-1, with Daudi and with Ramos were 2.45 µM, 53.5 µM and 24.9 µM, respectively. In addition, the inhibition stood at 4.71% in experiment [1] and 37.1% in experiment [2].
On to `CC1(C(=O)N2CC[C@H](n3cc(-c4ccc5c(c4)OCO5)c4c(N)ncnc43)C2)COC1`, for which the IC50 with JeKo-1 is 36.4 µM; in the experiment on Daudi, 30.5 µM; in the experiment on Ramos, 39 µM. Moreover, the inhibition in experiment [1] was -0.35%; in experiment [2], 22.4%.
For the molecule `Nc1ncnc2c1c(-c1cc3ccccc3o1)cn2[C@H]1CCN(C[C@H]2CO2)C1`, the IC50 with JeKo-1 came to 0.63 µM; in the experiment on Daudi, 4.21 µM; in the experiment on Ramos, 1.65 µM. Also, the results for the inhibition in experiment [1] and in experiment [2] were 17.4% and 62.9%, respectively.
In the same order, the values of `CC(C)(C)c1ccc(C(=O)Nc2ccc(-c3cn([C@H]4CCN(C[C@@H]5CO5)C4)c4ncnc(N)c34)cc2)cc1` are 3.29 µM, 5.98 µM, 2.97 µM, 15.7% and 53.8%.
For the molecule `Nc1ncnc2c1c(-c1ccc3c(c1)OCO3)nn2C[C@H]1CCCN1C[C@@H]1CO1`, the values for the IC50 with JeKo-1, in the experiment with Daudi and in the experiment with Ramos were 43.2 µM, 30.5 µM and 47.4 µM, respectively. Further, the values for the inhibition in experiment [1] and in experiment [2] were 13.9% and 56.7%, respectively.
For `Nc1ncnc2c1c(-c1cnc3[nH]ccc3c1)cn2C[C@H]1CCCN1C[C@@H]1CO1`, the inhibition in experiment [1] was found to be 13.7%; in experiment [2], 26.9%.
